Reference: patent publication US4975462A, “Antiarthritic α-arylcarbamoyl cyanoacetic acid derivatives” (Bristol-Myers Company, priority 1988, dated 1990)

Columns and labels:
[1] = system: carrageenin-induced paw edema; experiment: Carrageenin induced paw edema in the rat (CIP); assay type: in vivo, male Sprague Dawley rats; conditions: single oral dose of 50 mg/kg 30 min. prior to carrageenin injection; 4 hrs. after carrageenin injection
Experimental: B. Carrageenin induced paw edema in the rat.
This test is based on the procedure originally described by Holsapple and Yim (Inflammation, 1984, 8:223). Six male Sprague Dawley rats weighing approx. 300 gm were used in each experimental group. The rats had been starved for 24 hours prior to injection of 0.1 ml of 1% carrageenin into the plantar surface of the left hind paw. Test compounds were dosed orally 30 minutes prior to carrageenin administration. The volumes of the left hind paws were measured by mercury displacement at 2,4, and 6 hours following carrageenin injection. The efficacy of a compound was expressed as the percent inhibition of carrageenin injected paw volume as compared to non-injected paw using the following equation: [formula]
C=Vehicle control group (left paw volume-right paw volume)
RX=Drug treated group (left paw volume-right paw volume)
The peak of drug effects usually occurred 2-4 hours following carrageenin injection.
^(c) test compound administered as a single oral dose of 50 mg/kg 30
min. prior to carrageenin injection. % Inhibition determined 4 hrs. after
carrageenin injection; I = <25% reduction in paw volume and A =
≥25% reduction in paw volume.

[2] = system: adjuvant-induced polyarthritis (Mycobacterium butyricum); experiment: Modified developing adjuvant arthritis in rats (adjuvant-induced polyarthritis, AIP); assay type: in vivo, male Lewis rats; conditions: p.o., from d. 1-8
Experimental: A. Modified developing adjuvant arthritis in rats. This test is based on the procedure originally described by Pearson (Proc. Soc. Biol. Med., 1956, pp 91-5). Each experimental group used six male Lewis rats weighing approx. 250 gm. Arthritis was produced by a single intradermal injection of Mycobacterium butyricum (0.6 mg in 0.1 ml mineral oil) into the base of the tail. Test compounds were administered orally, once daily, starting on the day of inoculation (day 1) through day 8. The paw volume (average of two hind paws) was measured by the mercury displacement method at least twice weekly during the course of the experiment (40 to 42 days). The efficacy of a compound was expressed as the percent reduction of hind paw volume of treated vs. untreated rats using the following equation: [formula] PC=positive control (not treated, arthritic) NC=negative control (not treated, non-arthritic) RX=drug group (treated, arthritic) | ^(a) once daily, p.o., from d. 1-8. | ^(b) % Inhibition of paw edema: O = <25; + = 25-<40; ++ = 40-<60; +++ | = 60-80; ++++ = 80-100.

[3] = system: adjuvant-induced arthritis; conditions: J. Med. Chem., 1979, 22:1385-9; cited from earlier work

SMILES	CIP (% Inhibition, reduction in paw volume) [1]	AIP Inhib. score d. 20-22 (% Inhibition of paw edema) ([2]; 50 mg/kg once daily)	AIP Inhib. score d. 40-42 (% Inhibition of paw edema) ([2]; 50 mg/kg once daily)	inhibition of adjuvant-induced arthritis in rats [3]	AIP Inhib. score d. 20-22 (% Inhibition of paw edema) ([2]; 100 mg/kg once daily)	AIP Inhib. score d. 40-42 (% Inhibition of paw edema) ([2]; 100 mg/kg once daily)
CNC(=O)C(C#N)C(=O)Nc1ccc(C(F)(F)F)cc1 (stereo not drawn) [Example 3, β-Methylamino-β-oxo-α-(4-trifluoromethylphenyl) carbamoylpropionitrile]	A (≥25% reduction in paw volume)	+++ (60-80)	+++ (60-80)	–	–	–
N#CCC(=O)c1ccccc1 [Benzoylacetonitrile (I), Benzoylacetonitrile]	–	–	–	effective inhibitors	–	–
COC(=O)C(C#N)C(=O)Nc1ccc(C(F)(F)F)cc1 (stereo not drawn) [Example 2, βMethoxy-β-oxo-α-(4-trifluoromethylphenyl)carbamoylpropionitrile]	I (<25% reduction in paw volume)	–	–	–	+++ (60-80)	+++ (60-80)
CSC(=O)C(C#N)C(=O)Nc1ccc(C(F)(F)F)cc1 (stereo not drawn) [Example 1, β-Methylthio-β-oxo-α-(4-trifluoromethylphenyl)carbamoylpropionitrile]	A (≥25% reduction in paw volume)	++++ (80-100)	++++ (80-100)	–	–	–
